In patent publication US7951364B2, “CaR receptor as a mediator of migratory cell chemotaxis and/or chemokinesis” (The General Hospital Corporation, priority 2000, dated 2011):
Values joined by “and” are separate entries in the source; they are usually repeats but may differ in a detail not shown here. Identical values can stand only once.

Legend:
[1] = tested on: monocytes (Mac-1 positive mononuclear cells); test: Biologic activity in vivo: subcutaneous injection, monocyte infiltration at injection site; set-up: species or system C57BL/6 mice; details: tissue excised 18 hours later, CaCl2 5.0 mM, NPS R-467 10 μM
Experimental: Biologic activity of ionic calcium in vivo. C57BL/6 mice (Jackson Laboratories) were injected subcutaneously at a marked, shaved spot on the abdomen with 20 μl of 5 mM CaCl2 or 20 μl of MCP-1 at a concentration of 10 ng/ml, with a combination of MCP-1 and 5 mM CaCl2 or with 10 μM NPS R-467 in PBS. Control mice were injected subcutaneously with 20 μl PBS alone. All subcutaneously injected agents contained less than 0.004 ng/ml of LPS by the limulus assay (Sigma) as previously described (Bleul, C. C., et al., J Exp Med, 1996, 184:1101-1109). Mice were sacrificed by CO2 asphyxiation 18 hours after injection, and injection sites were excised, snap-frozen and 4 μm cryosections were obtained and stained with hematoxylin and eosin. Immunocytochemistry was performed on the frozen sections using alkaline phosphatase-conjugated Mac-1 antibody (Pharmingen) as previously described and assessed by light microscopy (Bleul, C. C., et al., supra).

CCR-2 = test: Chemokine receptor expression on monocytes by flow cytometry: CCR-2; assay type: cell-based, human
Experimental: Chemokine receptor expression and flow cytometric analysis.
Table 1: Exposure of CD14^+ monocytes to Ca^++ enhances CCR2 expression in a dose dependent manner. Monocytes were exposed to varying concentrations of Ca^++ and to the selective CaR activator, NPS R-467 (1 μM), or to NPS S-467 (1 μM) in the presence of 1.5 mM Ca^++. The median fluorescence intensity for CCR2 expression was measured for each Ca^++ concentration and in the presence of NPS R-467 or S-467. Mean values +/−s.e.m. from three independent experiments are shown.

CD4 = details: varying Ca^++ concentration
Experimental: (§1) Chemokine receptor expression and flow cytometric analysis. Purified monocytes were incubated in a Ca^++-free medium supplemented with 1 mM, 3 mM or 5 mM CaCl2 or with 1.5 mM CaCl2 plus 1 μM NPS R-467 or S-467. Cells were washed once in PBS with 1% FCS and resuspended in 100 μl of Ca^++-free PBS. Monoclonal antibody against the CaR was added to the cells and incubated alone or with the CaR peptide for 30 min at room temperature. Cells were washed with PBS containing 1% FCS, resuspended in PBS with 1% FCS and incubated for 15 min at room temperature with anti-mouse IgG conjugated to FITC. The cells were washed again and conjugated monoclonal antibody [anti-CXCR4, anti-CCR5 (Pharmingen, San Diego, Calif.); anti-CCR2 (R&D, Minneapolis, Minn.); anti-CD14 (Becton Dickinson, San Jose, Calif.); or anti-CD4 (Becton Dickinson, San Jose, Calif.)] was added and incubated for 15 min at room temperature. Stained cells were fixed with 1% paraformaldehyde and assayed within 24 hrs. Flow cytometric analysis was performed using a dual laser FACSCalibur (Becton Dickinson Immunocytometry Systems, San Jose, Calif.) calibrated using 2 μm Calibrite beads (Becton Dickinson). Data acquisition and analysis were performed using CellQuest software (Becton Dickinson).

CXCR-4 = details: elevated Ca^++
Experimental: as §1

CCR-5 = details: elevated Ca^++
Experimental: as §1

[2] = molecular target: calcium-sensing receptor (CaR) (Homo sapiens, UniProt P41180); details: cited from earlier work
human CD34^+ cells = test: In vitro assays of human CD34^+ hematopoietic progenitor cells; assay type: cell-based; details: increased Ca^2+ concentration
Excerpt: Calcium ions effect Hematopoietic Progenitor Cells. We also assessed the effects of calcium, through its interaction with the calcium sensing receptor (CaR) using in vitro assays of human CD34^+ cells. […] Therefore, calcium participates in maintaining candidate stem cells in a primitive, undifferentiated state. […] This was accompanied by a decrease in the level of LTC-ICs in the bone marrow, but an increase in the level of CFU-Cs, with a converse increase in hematopoietic stem cells in is the peripheral blood.

CD14^+ monocytes = test: Transmigration assay (monocyte chemotaxis, transwell); assay type: cell-based, human
Experimental: Preparation of peripheral blood CD14^+ monocytes. Low density cells were isolated from human and mouse peripheral blood using Ficoll-Hypaque (Pharmacia, Piscataway, N.J.). CD14^+ monocytes were purified by sorting on FACSVantage (Becton Dickinson, San Jose, Calif.) based on CD14 expression. Purified cells were incubated in either calcium-free medium (Hanks' Balanced Salt Solution 1×, CellGro, Hermdon. VA) or Iscove's Medium 1×(Mod) (CellGro, Herndon, Va.) which contains 1.5 mM Ca++. […] Cells were incubated for up to 24 hours in 5% CO2 humidified air. Monocytes were then detached from the plate using a cell scraper. All calcium concentrations indicated in the presentation of the data represent the total Ca^++ present in the basal medium plus any added Ca^++.
Transmigration assays. Transwells (5 μm pore size polycarbonate membrane, 12 mm diameter) (Costar, Corning, N.Y.) were used to assess cell migration using an established methodology (25). The concentration of Ca^++ in IMDM (CellGro, Herndon, Va.) in the upper and lower chambers of the transwell were adjusted according to a checkerboard analysis of chemotaxis. Calcium concentrations varied from 0 mM to 6.5 mM. Purified monocytes (1×10^4) were then placed in the top chamber with 150 μl of IMDM (CellGro, Hemdon, Va.). 500 μl of the medium was added to the bottom of the well and supplemented with varying concentrations of Ca^++ or with Ca^++ plus 10 ng/ml of MCP-1, 100 ng/ml of SDF-1α or 10 ng/ml of MIP-1α (PeproTech, Rocky Hills, N.Y.). Cells were incubated at 37° C. for 3 hours. To study inhibition of chemotaxis, cells were subsequently incubated with wortmannin (1 μM for 20 minutes at 37° C.), herbimycin (1 μM for 20 minutes at 37° C.) or genistein (1 μg/ml for 20 minutes at 37° C.), before their use in transmigration assays. At the end of the experiment, cells were then harvested from the lower chamber and counted using a hemocytometer.

calcium-sensing receptor (CaR), sequence (P41180 20-1078): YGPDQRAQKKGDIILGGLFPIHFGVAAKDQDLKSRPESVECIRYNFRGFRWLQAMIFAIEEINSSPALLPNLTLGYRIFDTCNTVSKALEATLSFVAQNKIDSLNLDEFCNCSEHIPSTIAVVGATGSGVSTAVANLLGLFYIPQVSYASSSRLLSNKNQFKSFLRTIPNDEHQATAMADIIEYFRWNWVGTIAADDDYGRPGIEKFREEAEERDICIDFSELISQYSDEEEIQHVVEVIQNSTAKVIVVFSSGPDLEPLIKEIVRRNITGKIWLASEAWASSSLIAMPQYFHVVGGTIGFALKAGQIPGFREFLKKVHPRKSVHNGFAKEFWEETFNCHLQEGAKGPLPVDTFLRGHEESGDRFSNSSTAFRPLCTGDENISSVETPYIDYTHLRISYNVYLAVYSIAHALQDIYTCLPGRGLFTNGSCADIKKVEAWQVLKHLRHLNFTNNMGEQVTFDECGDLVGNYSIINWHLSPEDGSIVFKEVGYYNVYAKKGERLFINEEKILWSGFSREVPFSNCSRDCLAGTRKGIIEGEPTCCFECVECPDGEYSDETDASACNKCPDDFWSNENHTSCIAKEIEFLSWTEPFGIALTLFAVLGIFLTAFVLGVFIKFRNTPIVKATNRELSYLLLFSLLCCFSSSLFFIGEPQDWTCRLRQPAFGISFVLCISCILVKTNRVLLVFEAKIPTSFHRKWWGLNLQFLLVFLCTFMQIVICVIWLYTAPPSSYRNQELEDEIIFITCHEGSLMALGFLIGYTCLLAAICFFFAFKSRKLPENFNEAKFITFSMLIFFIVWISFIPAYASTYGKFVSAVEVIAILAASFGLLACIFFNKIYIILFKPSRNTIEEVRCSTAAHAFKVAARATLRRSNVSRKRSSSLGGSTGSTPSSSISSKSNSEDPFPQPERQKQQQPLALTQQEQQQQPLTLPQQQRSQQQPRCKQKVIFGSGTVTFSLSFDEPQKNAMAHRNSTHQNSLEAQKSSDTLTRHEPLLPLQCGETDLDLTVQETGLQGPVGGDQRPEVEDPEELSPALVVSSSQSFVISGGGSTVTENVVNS

[Ca+2].[Cl-].[Cl-] [Ca^++, calcium chloride]
Accumulation of mononuclear cells staining positive for Mac-1 at injection site [1]: Accumulation | Cell surface CCR-2 expression (CCR-2): up-modulation | Mean fluorescent intensity -CCR-2 Mean +/− s.e.m. (CCR-2): 278 +/− 39 and 296 +/− 35 and 307 +/− 35 | Fluorescence intensity of anti-CD4 antibody staining (CD4): did not vary | CXCR-4 expression (CXCR-4): increased but did not achieve statistical significance | CCR-5 median fluorescence intensity (CCR-5): failed to demonstrate any change | Ca^++ concentration at which activation of the receptor is maximal [2]: 5 mM | Number of more mature BFU-Es (human CD34^+ cells; p=0.017): decrease | Level of primitive cells measured by LTC-ICs (human CD34^+ cells; p=0.037): increase | Ca^++ concentration giving maximal chemotaxis (CD14^+ monocytes): 4.5 mM | Ca^++ concentration giving peak migration in response to MCP-1 (CD14^+ monocytes): 4.5 mM
